pIC50: −log10 of the molar value.
Tests used:
Format in all cases: cell-based, human
A549 cells [1] = test: MTT viability with NAC pre-incubation; conditions: NAC 10 mM 2 h pre-incubation, then 24 h
Protocol: Cytotoxicity. MTT Assay and IC50 estimation. The cytotoxicity of 1[C,NH-Cl], 2[C,NMe-Cl], 3[N,NH-Cl]Cl, 4[N,NMe-Cl]Cl, 5[CNH2,NH-Cl]Cl, 6[CNH2,S-Cl]Cl, 7[CO,NH-Cl] and 8[CO,S-Cl] in A2780, A2780cis, SW480 and A549 carcinoma cells was evaluated by the MTT colorimetric assay. Cells were seeded in 96-well plates at 5000 cells per well and incubated at 37 °C, 5% CO2. After 24 h, the medium was removed and replaced with fresh medium with different concentrations of the compounds under study, and they were incubated for 48 h. Final DMSO concentration was kept below 0.7% in wells. For a negative control, one sequence of cells was left untreated and for vehicle control, cells treated with DMSO were included. For cell viability experiments preincubating with NAC (N-Acetyl-L-Cysteine), the cells were pre-treated with NAC, 10 mM for 2 h before the incubation with complex 1[C,NH-Cl] for 24 h. Then, the medium was removed from the wells, and 100 µL MTT (5 mg/mL) was added. […] Cell growth inhibition was detected by measuring the absorbance of each well at 595 nm using a BioTek Cytation5 microplate reader. […] The percentage of survival cells was calculated using absorbance measurements compared with control and the IC50 estimation using Graph Pad Prism version 6.01.

A549 cells [2] = test: Lactate dehydrogenase release; conditions: 16 µM, 1% FBS
Protocol: (§1) DNA damage was measured using EpiQuik 8-OHdG DNA Damage Quantification Direct Kit (colorimetric) (Fischer, Waltham, MA, USA, P600396); The mitochondrial cytochrome C release was evaluated using the “Millipore’s FlowCellect Cytochrome C Kit (Millipore, FCCH100110)”. Lactate dehydrogenase activity release was measured in the culture medium using Cytotoxicity Detection Kit (Roche Diagnostic, Barcelona, Spain, 11 644 793 001). Protein synthesis was determined using Click-iT Plus O-propargyl-puromycin (OPP) Protein Synthesis Assay Kit (Invitrogen™, Waltham, MA, USA). Measurement of GSH/GSSG was determined with GSH/GSSG-Glo Assay (Promega, V6611). Measurements of OCR and ECAR with Seahorse XFp (Agilent Technologies) were determined using the XFp Cell Mito Stress Test Kit (103010-100) and XFp Glycolysis Stress Test Kit (103017-100). ATP measurement was determined with Cell Titer-Glo Luminescent Cell Viability Assay (Promega, Madison, WI, USA, G7570). Determination of DNA damage using phosphorylated H2AX measurement were performed as previously described. Cardiolipin oxidation using the fluorophore Nonyl Acridine Orange (NAO, Thermo Scientific, A1372) was performed as described. Cell viability was determined by Hoechst inclusion and Propidium iodide (PI) exclusion by standard protocols. TEM analysis were performed as described. […]

A549 cells [3] = test: Hoechst/propidium iodide staining; conditions: 16 μM
Protocol: as §1

A549 cells [4] = test: Viability of A549 proliferant vs quiescent cells; conditions: 24 h
Protocol: Cytotoxicity. MTT Assay and IC50 estimation. The cytotoxicity of 1[C,NH-Cl], 2[C,NMe-Cl], 3[N,NH-Cl]Cl, 4[N,NMe-Cl]Cl, 5[CNH2,NH-Cl]Cl, 6[CNH2,S-Cl]Cl, 7[CO,NH-Cl] and 8[CO,S-Cl] in A2780, A2780cis, SW480 and A549 carcinoma cells was evaluated by the MTT colorimetric assay. Cells were seeded in 96-well plates at 5000 cells per well and incubated at 37 °C, 5% CO2. […] Final DMSO concentration was kept below 0.7% in wells. For a negative control, one sequence of cells was left untreated and for vehicle control, cells treated with DMSO were included. For cell viability experiments preincubating with NAC (N-Acetyl-L-Cysteine), the cells were pre-treated with NAC, 10 mM for 2 h before the incubation with complex 1[C,NH-Cl] for 24 h. Then, the medium was removed from the wells, and 100 µL MTT (5 mg/mL) was added. After an incubation time of 4 h, 100 μL of solubilizing detergent solution (SDS, 10% in HCL 0.01 M) was added and kept in the incubator overnight. Cell growth inhibition was detected by measuring the absorbance of each well at 595 nm using a BioTek Cytation5 microplate reader. Each test was repeated in quadruplicate in three independent experiments for each cell line. The percentage of survival cells was calculated using absorbance measurements compared with control and the IC50 estimation using Graph Pad Prism version 6.01.

## Cc1c(C)c(C)[c-](C)c1C.[Cl][Ir]1[c]2ccccc2-c2[nH]c3ccccc3[n+]21 [1[C,NH], [(η^5-Cp*)IrCl(κ^2-N,C-pbim)]]
A549 cells [1]
  Rescue of cytotoxicity by NAC: partial rescue
A549 cells [2]
  LDH release to the medium: only began after 8 h of incubation
A549 cells [3]
  PI positive cells: absent during the first 6 h of treatment
A549 cells [4]; A549 non-proliferating (quiescent) condition
  pIC50: 4.77
A549 cells [4]; A549 proliferating condition
  pIC50: 5.02

Source: PMC9818021, “Targets, Mechanisms and Cytotoxicity of Half-Sandwich Ir(III) Complexes Are Modulated by Structural Modifications on the Benzazole Ancillary Ligand” (Cancers, 2022)
